Assay [1] relates to 225 kinases in the ThermoFisher standard kinase panel. The assay can be described thus: Kinase-panel activity screen, whole panel. It counts as biochemical. As to conditions: 10 µM compound; for Kinase selectivity profile in words: panel of 225 kinases. As to the method:
Compounds 2, 3 and 5 were tested for activity against the 225 kinases in the ThermoFisher standard kinase panel. The standard Z′-LYTE assay protocol (ThermoFisher) was used to measure the percentage inhibition at 10 µM compound concentration (details are provided in the supporting information).

For a further assay, the system named is ERK5 signalling. Also noted: method as in Gavine et al., 2015. As to conditions: HEK293 cell line stably co-expressing MEK5CA and ERK5; ref Gavine et al., 2015; cited from earlier work.

Regarding `Cc1ncc(-c2nc(Nc3ccc(C(=O)NCCN4CCCCC4)cc3)ncc2F)n1C(C)C` [Compound 3], the “Kinase selectivity profile in words” value in assay [1] is “most promiscuous”.
In the case of `Cc1cc(Nc2nc(N)nn2C(=O)NC(C)C)ccc1Cl` [Compound 5], in assay [1], the “Number of kinases with significant activity (greater than 80% inhibition) out of the 225 tested” value is reported as “five” and the “Kinase selectivity profile in words” value is given as “most selective”.
Regarding “XMD8-92 [Compound 2, reference compound]”, the “Block of downstream ERK5 signalling” value in the assay on ERK5 signalling is “able to block downstream ERK5 signalling”.

These data come from PMC4854315, “Discovery of a novel allosteric inhibitor-binding site in ERK5: comparison with the canonical kinase hinge ATP-binding site” (Acta Crystallographica. Section D, Structural Biology, 2016).
